From PMC9525708, “Mechanistic insight into the role of mevalonate kinase by a natural fatty acid-mediated killing of Leishmania donovani” (Scientific Reports, 2022)

Assays:
[1] = target: T1, mevalonate kinase (MevK, LD-MevK) (Leishmania donovani, UniProt A0A3S7X459); experiment: pyruvate kinase-lactate dehydrogenase coupled assay, purified enzyme, […] compound; assay type: biochemical
T1 construct: gene LdCL_310011300; recombinant LD-MevK (pET28a, Ni-NTA purified, ~37 kDa)
T1 sequence (A0A3S7X459 1-329): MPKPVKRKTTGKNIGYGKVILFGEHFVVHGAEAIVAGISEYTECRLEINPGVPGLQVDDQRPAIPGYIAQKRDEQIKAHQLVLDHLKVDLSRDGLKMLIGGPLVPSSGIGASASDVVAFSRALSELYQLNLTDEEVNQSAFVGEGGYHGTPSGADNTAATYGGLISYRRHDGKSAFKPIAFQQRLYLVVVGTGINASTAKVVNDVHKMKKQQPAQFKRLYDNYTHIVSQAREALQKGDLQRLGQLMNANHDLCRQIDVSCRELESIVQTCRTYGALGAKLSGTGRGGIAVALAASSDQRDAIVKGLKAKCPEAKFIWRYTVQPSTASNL

[2] = target: T1, mevalonate kinase (MevK, LD-MevK); experiment: ITC (exothermic binding constant); also CD, and coupled PK-LDH assay with purified enzyme ([…] inhibition at […], competitive); settings: read-out: ITC (exothermic binding constant); also CD, and coupled PK-LDH assay with purifi
[3] = target: T1, mevalonate kinase (MevK, LD-MevK); experiment: ITC (endothermic binding constant); also CD and enzyme kinetics (Km […])

inhibition at 100 µM [1] | Structure (SMILES) | further results
~65% | CCCCCCCC(=O)OC [1m-CAE, methyl octanoate] | –
~65% | CCCCC(C)CCC(=O)O (stereo not shown) [4m-CA, 4-methyl octanoic acid] | –
– | CCCCCCCC(=O)O [CA, Caprylic acid] | Kd [2]: 101 µM
– | C[C@@](O)(CCO)CC(=O)O [MEV, 3,5-Dihydroxy-3-methylpentanoic acid] | Kd [3]: 62.9 µM
